From patent publication US20260184707A1, “PHARMACEUTICAL COMPOUNDS FOR THE TREATMENT OF COMPLEMENT MEDIATED DISORDERS” (ALEXION PHARMACEUTICALS, INC., priority 2022, published 2026)
pIC50: −log10 of the molar value.

What follows are molecules tested against T1, Human complement C1s enzyme (Homo sapiens, UniProt P09871) (assay: Human C1s enzyme assay). Conditions: human complement C1s enzyme 1.16 nM, substrate Z-L-Lys-SBzl, A405; read-out: IC50 (Stars).
T1 construct: purified from human serum, Complement Technology, Inc; purchased Complement Technology, Inc; host or cells: human serum (plasma-derived native protein)
T1 sequence (P09871 438-688 limits assumed): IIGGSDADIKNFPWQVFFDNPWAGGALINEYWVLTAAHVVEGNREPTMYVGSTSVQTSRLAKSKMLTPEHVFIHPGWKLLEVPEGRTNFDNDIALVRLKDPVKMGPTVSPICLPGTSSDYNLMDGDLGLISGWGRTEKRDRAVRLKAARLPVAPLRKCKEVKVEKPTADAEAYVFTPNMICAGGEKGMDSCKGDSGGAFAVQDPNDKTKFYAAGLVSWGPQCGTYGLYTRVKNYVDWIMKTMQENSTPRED
T1 sequence (P09871 16-437 partner limits assumed): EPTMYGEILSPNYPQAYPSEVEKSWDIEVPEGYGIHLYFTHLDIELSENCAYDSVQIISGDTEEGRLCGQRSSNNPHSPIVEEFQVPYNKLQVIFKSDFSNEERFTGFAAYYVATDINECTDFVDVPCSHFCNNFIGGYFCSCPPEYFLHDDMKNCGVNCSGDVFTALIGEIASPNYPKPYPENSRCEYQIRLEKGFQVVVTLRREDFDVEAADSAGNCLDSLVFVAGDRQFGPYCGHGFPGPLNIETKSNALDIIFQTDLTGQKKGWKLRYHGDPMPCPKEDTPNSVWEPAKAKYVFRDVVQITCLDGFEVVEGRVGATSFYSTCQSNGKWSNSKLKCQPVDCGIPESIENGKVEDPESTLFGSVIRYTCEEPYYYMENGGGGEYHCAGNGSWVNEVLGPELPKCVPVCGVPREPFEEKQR
Assay type: biochemical
Summary of the method: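 Serum-purified human C1s (1.16 nM final) preincubated 5 min at room temperature with compound in 50 mM Tris, 1 M NaCl, pH 7.5. Z-L-Lys-SBzl and DTNB added at 100 μM each; A405 recorded every 30 s. IC50 from nonlinear regression of reaction rates versus compound concentration.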

Row | SMILES | pIC50
1 | O=C(Cn1c(-c2ccccc2)cnc(NCc2ccc(Oc3ccccc3)cc2)c1=O)NCc1cc2cnccc2[nH]1 [Compound 63, N-((1H-pyrrolo[3,2-c]pyridine-2-yl)methyl)-2-(2-oxo-3-((4-phenoxybenzyl)amino)-6-phenylpyrazin-1(2H)-yl)acetamide] | > 7.00
2 | N#Cc1c(NCCCc2ccccc2)ccc(-c2ccccc2)c1CC(=O)NCc1cc2cnccc2[nH]1 [Compound 302, N-((1H-pyrrolo[3,2-c]pyridine-2-yl)methyl)-2-(3-cyano-4-((3-phenylpropyl)amino)-[1,1′-biphenyl]-2-yl)acetamide] | > 7.00
3 | Cc1cnc(CNc2cnc(-c3ccccc3)n(CC(=O)NCc3cc4cnccc4[nH]3)c2=O)o1 [Compound 455, N-((1H-pyrrolo[3,2-c]pyridin-2-yl)methyl)-2-(5-(((5-methyl-oxazol-2-yl)methyl)amino)-6-oxo-2-phenylpyrimidin-1(6H)-yl)acetamide] | > 7.00
4 | C[C@@H](Nc1ncc(N2CCNCC2)n(CC(=O)NCc2cc3cnccc3[nH]2)c1=O)c1ccc2oc3ccccc3c2c1 [Compound 444, (R)-N-((1H-pyrrolo[3,2-c]pyridin-2-yl)methyl)-2-(3-((1-(dibenzo[b,d]furan-2-yl)ethyl)-amino)-2-oxo-6-(piperazin-1-yl)pyrazin-1(2H)-yl)acetamide] | > 7.00
5 | C[C@@H](Nc1cnc(N2CCCC2=O)n(CC(=O)NCc2cc3cnccc3[nH]2)c1=O)c1ccc2oc3ccccc3c2c1 [Compound 400, (R)-N-((1H-pyrrolo[3,2-c]pyridin-2-yl)methyl)-2-(5-((1-(dibenzo[b,d]furan-2-yl)ethyl)-amino)-6-oxo-2-(2-oxopyr-rolidin-1-yl)pyrimidin-1(6H)-yl)acetamide] | > 7.00
6 | O=C(Cn1c(-c2ccccc2)ncc(NC(=O)c2noc(-c3ccccc3)n2)c1=O)NCc1cc2cnccc2[nH]1 [Compound 219, N-(1-(2-(((1H-pyrrolo[3,2-c]pyridine-2-yl)methyl)amino)-2-oxoethyl)-6-oxo-2-phenyl-1,6-dihydropyrimidin-5-yl)-5-phenyl-1,2,4-oxadiazole-3-carboxamide] | > 7.00
7 | C[C@@H](Nc1cnc(-c2ccco2)n(CC(=O)NCc2cc3cnccc3[nH]2)c1=O)c1ccc2oc3ccccc3c2c1 [Compound 326, (R)-N-((1H-pyrrolo[3,2-c]pyridin-2-yl)methyl)-2-(5-((1-(dibenzo[b,d]furan-2-yl)ethyl)-amino)-2-(furan-2-yl)-6-oxo-pyrimidin-1(6H)-yl)acetamide] | > 7.00
8 | COc1cc(C(=O)Nc2cnc(-c3ccccc3)n(CC(=O)NCc3cc4cnccc4[nH]3)c2=O)ccc1-c1ccccc1 [Compound 115, N-(1-(2-(((1H-pyrrolo[3,2-c]pyridin-2-yl)methyl)amino)-2-oxoethyl)-6-oxo-2-phenyl-1,6-dihydropyrimidin-5-yl)-2-methoxy-[1,1′-biphenyl]-4-carboxamide] | > 7.00
9 | O=C(Cn1c(-c2ccccc2)ncc(NCc2cc(-c3ccccc3)ns2)c1=O)NCc1cc2cnccc2[nH]1 [Compound 458, N-((1H-pyrrolo[3,2-c]pyridin-2-yl)methyl)-2-(6-oxo-2-phen-yl-5-(((3-phenylisothiazol-5-yl)methyl)amino)pyrimidin-1(6H)-yl)acetamide] | > 7.00
10 | O=C(Cn1c(-c2ccccc2)ncc(NC(=O)CCCOc2ccccc2)c1=O)NCc1cc2cnccc2[nH]1 [Compound 4, N-(1-(2-(((1H-pyrrolo[3,2-c]pyridin-2-yl)methyl)amino)-2-oxoethyl)-6-oxo-2-phenyl-1,6-dihydropyrimidin-5-yl)-4-phen-oxybutanamide] | > 7.00
11 | C[C@@H](Nc1ncc(C2CCCC2)n(CC(=O)NCc2cc3cnccc3[nH]2)c1=O)c1ccc2oc3ccccc3c2c1 [Compound 420, (R)-N-((1H-pyrrolo[3,2-c]pyridin-2-yl)methyl)-2-(6-cyclopentyl-3-((1-(dibenzo [b,d]furan-2-yl)ethyl)amino)-2-oxopyrazin-1(2H)-yl)acet-amide] | > 7.00
12 | C[C@@H](Nc1cnc(C2CCCC2)n(CC(=O)NCc2cc3cnccc3[nH]2)c1=O)c1ccc2oc3ccccc3c2c1 [Compound 324, (R)-N-((1H-pyrrolo[3,2-c]pyr-idin-2-yl)methyl)-2-(2-cyclo-pentyl-5-((1-(dibenzo[b,d]furan-2-yl)ethyl)amino)-6-oxo-pyrimidin-1(6H)-yl)acetamide] | 6.00 to 7.00
13 | COc1ncc(N[C@H](C)c2ccc3oc4ccccc4c3c2)c(=O)n1CC(=O)NCc1cc2cnccc2[nH]1 [Compound 319, (R)—N-((1H-pyrrolo[3,2-c]pyridine-2-yl)methyl)-2-(5-((1-(dibenzo[b,d]furan-2-yl)ethyl)amino)-2-methoxy-6-oxopyrimidin-1(6H)-yl)acetamide] | < 6.00
14 | O=C(Cn1c(-c2ccccc2)ncc(NCc2ccc3oc4ccccc4c3c2)c1=O)NCc1cc2cnccn2c1 [Compound 144, 2-(5-((dibenzo[b,d]furan-2-ylmethyl)amino)-6-oxo-2-phenylpyrimidin-1(6H)-yl)-N-(pyrrolo[1,2-a]pyrazin-7-ylmethyl)acetamide] | < 6.00
15 | C[C@@H](Nc1cnc(OC2CC2)n(CC(=O)NCc2cc3cnccc3[nH]2)c1=O)c1ccc2oc3ccccc3c2c1 [Compound 343, (R)—N-((1H-pyrrolo[3,2-c]pyridine-2-yl)methyl)-2-(2-cyclopropoxy-5-((1-(dibenzo[b,d]furan-2-yl)ethyl)amino)-6-oxopyrimidin-1(6H)-yl)acetamide] | 6.00 to 7.00
16 | C[C@H](Nc1cnc(-c2cccnc2)n(CC(=O)NCc2cc3cnccc3[nH]2)c1=O)c1ccc2oc3ccccc3c2c1 [Compound 274, (S)-N-((1H-pyrrolo[3,2-c]pyr-idin-2-yl)methyl)-2-(5-((1-(dibenzo[b,d]furan-2-yl)ethyl)-amino)-6-oxo-2-(pyridin-3-yl)-pyrimidin-1(6H)-yl)acetamide] | > 7.00
17 | O=C(Cn1c(-c2ccccc2)ncc(NC(=O)c2ccc(Oc3ccccc3)nc2)c1=O)NCc1cc2cnccc2[nH]1 [Compound 74, N-(1-(2-(((1H-pyrrolo[3,2-c]pyridin-2-yl)methyl)amino)-2-oxoethyl)-6-oxo-2-phenyl-1,6-dihydropyrimidin-5-yl)-6-phenoxynicotinamide] | > 7.00
18 | O=C(Cn1c(N2CCCCC2)cnc(N[C@H](CF)c2ccc3oc4ccccc4c3c2)c1=O)NCc1cc2cnccc2[nH]1 [Compound 494, (S)-N-((1H-pyrrolo[3,2-c]pyridin-2-yl)methyl)-2-(3-((1-(dibenzo[b,d]furan-2-yl)-2-fluoroethyl)amino)-2-oxo-6-(piperidin-1-yl)pyrazin-1(2H)-yl)acetamide] | < 6.00
19 | C[C@@H](Nc1cnc(N2CCCC(F)C2)n(CC(=O)NCc2cc3cnccc3[nH]2)c1=O)c1ccc2oc3ccccc3c2c1 (stereo partly drawn) [Compound 398, N-((1H-pyrrolo[3,2-c]pyridin-2-yl)methyl)-2-(5-(((R)-1-(dibenzo[b,d]furan-2-yl)ethyl)-amino)-2-(3-fluoropiperidin-1-yl)-6-oxopyrimidin-1(6H)-yl)-acetamide] | > 7.00
20 | O=C(Cn1c(-c2ccccc2)ncc(NCc2nnc(-c3ccccc3)s2)c1=O)NCc1cc2cnccc2[nH]1 [Compound 454, N-((1H-pyrrolo[3,2-c]pyridin-2-yl)methyl)-2-(6-oxo-2-phen-yl-5-(((5-phenyl-1,3,4-thiadia-zol-2-yl)methyl)amino)pyr-imidin-1(6H)-yl)acetamide] | > 7.00
21 | C[C@H](Nc1cnc(-c2ccc(S(F)(F)(F)(F)F)cc2)n(CC(=O)NCc2cc3cnccc3[nH]2)c1=O)c1ccc2oc3ccccc3c2c1 [Compound 296, (S)-N-((1H-pyrrolo[3,2-c]pyridin-2-yl)methyl)-2-(5-((1-(dibenzo[b,d]furan-2-yl)ethyl)-amino)-6-oxo-2-(4-(penta-fluoro-lambda6-sulfaneyl)-phenyl)pyrimidin-1(6H)-yl)-acetamide] | > 7.00
22 | CC(=O)N1CCN(c2ncc(N[C@H](C)c3ccc4oc5ccccc5c4c3)c(=O)n2CC(=O)NCc2cc3cnccc3[nH]2)CC1 [Compound 466, (R)-N-((1H-pyrrolo[3,2-c]pyridin-2-yl)methyl)-2-(2-(4-acetylpiperazin-1-yl)-5-((1-(dibenzo[b,d]furan-2-yl)ethyl)-amino)-6-oxopyrimidin-1(6H)-yl)acetamide] | > 7.00
23 | O=C(Cn1c(-c2ccccc2)ncc(-c2nc3ccccc3[nH]2)c1=O)NCc1cc2cnccc2[nH]1 [Compound 82, 2-(5-(1H-benzo[d]pyridine-2-yl)-6-oxo-2-phenylpyrimidin-1(6H)-yl)-N-((1H-pyrrolo[3,2-c]pyridine-2-yl)methyl)acetamide] | < 6.00
24 | C[C@@H](Nc1cncn(CC(=O)NCc2cc3cnccc3[nH]2)c1=O)c1ccc2oc3ccccc3c2c1 [Compound 310, (R)-N-((1H-pyrrolo[3,2-c]pyridin-2-yl)methyl)-2-(5-((1-(dibenzo[b,d]furan-2-yl)ethyl)-amino)-6-oxopyrimidin-1(6H)-yl)acetamide] | 6.00 to 7.00
